Reference: patent publication US12435092B2, “Substituted imidazo[1,2-A]quinazolines as inhibitors of PARG” (858 Therapeutics, Inc., priority 2022, dated 2025)

Biological target: T1, cellular PARG (Homo sapiens, UniProt Q86W56)
T1 construct: endogenous in cells; host or cells: HeLa
Assay: Nuclear PAR accumulation assay (immunofluorescence high-content imaging)
Assay type: cell-based
Settings: HeLa cells, 1 hour compound treatment then MMS 50 μg/mL for an additional hour
Experimental: Compound IC50 values for inhibition of cellular PARG were determined using an immunofluorescence high-content imaging assay for nuclear PAR accumulation. HeLa cells were plated at 15,000 cells/well in a 96-well plate the day before compound treatment and then treated with varying concentrations of test compound and incubated for 1 hour at 37° C.+5% CO2. Following test compound treatment, methylmethane sulfonate (MMS) was added to a final concentration of 50 μg/mL and the cells were incubated for an additional hour. Following treatment, the cells were fixed with ice cold 95% methanol and the plates sealed and placed at −20° C. for 15 minutes. The cells were then washed once with phosphate buffered saline (PBS) and permeabilized with 0.1% Triton-X 100 for 20 minutes at room temperature. The cells were again washed once with PBS and incubated with an anti-poly-ADP ribose (PAR) monoclonal antibody (Millipore Part #AM80 clone 10H) diluted 1:1,000 in 5% fetal bovine serum +0.1% Tween-20+PBS overnight at 4° C. The cells were then washed three times with PBS before incubation with a fluorescently conjugated goat anti-mouse antibody (Invitrogen A32723) diluted 1:500 in 5% FBS+0.1% Tween-20+PBS for 1 hour at room temperature. The cells were again washed three times with PBS and the nuclei labeled by incubating with 1 μg/mL DAPI (4′,6-diamidino-2-phenylindole). Nuclear PAR accumulation was evaluated using high-content fluorescence microscopy. Four fields for each well were acquired at 20× magnification resulting in at least 1,000 cells analyzed per well. Using high-content software (CellReporterXpress) the nuclei were detected and segmented using the DAPI channel and the fluorescence intensity of the PAR-Alexa 488 channel was quantified within the nuclei regions. Both the average intensity per nucleus and percent PAR positive cells were quantified. Percent PAR positive cells were identified by having greater anti-PAR labeling above the threshold set with vehicle DMSO treated control cells. Percent inhibition of PARG by test compounds was calculated by normalizing the data to the 0.1% DMSO and reference compound control values, which represent 0% and 100% inhibition of enzymatic activity, respectively. Concentration-response-curves and IC50 values were generated using four parameter logistic curve fit software.

T1 sequence (Q86W56 whole entry): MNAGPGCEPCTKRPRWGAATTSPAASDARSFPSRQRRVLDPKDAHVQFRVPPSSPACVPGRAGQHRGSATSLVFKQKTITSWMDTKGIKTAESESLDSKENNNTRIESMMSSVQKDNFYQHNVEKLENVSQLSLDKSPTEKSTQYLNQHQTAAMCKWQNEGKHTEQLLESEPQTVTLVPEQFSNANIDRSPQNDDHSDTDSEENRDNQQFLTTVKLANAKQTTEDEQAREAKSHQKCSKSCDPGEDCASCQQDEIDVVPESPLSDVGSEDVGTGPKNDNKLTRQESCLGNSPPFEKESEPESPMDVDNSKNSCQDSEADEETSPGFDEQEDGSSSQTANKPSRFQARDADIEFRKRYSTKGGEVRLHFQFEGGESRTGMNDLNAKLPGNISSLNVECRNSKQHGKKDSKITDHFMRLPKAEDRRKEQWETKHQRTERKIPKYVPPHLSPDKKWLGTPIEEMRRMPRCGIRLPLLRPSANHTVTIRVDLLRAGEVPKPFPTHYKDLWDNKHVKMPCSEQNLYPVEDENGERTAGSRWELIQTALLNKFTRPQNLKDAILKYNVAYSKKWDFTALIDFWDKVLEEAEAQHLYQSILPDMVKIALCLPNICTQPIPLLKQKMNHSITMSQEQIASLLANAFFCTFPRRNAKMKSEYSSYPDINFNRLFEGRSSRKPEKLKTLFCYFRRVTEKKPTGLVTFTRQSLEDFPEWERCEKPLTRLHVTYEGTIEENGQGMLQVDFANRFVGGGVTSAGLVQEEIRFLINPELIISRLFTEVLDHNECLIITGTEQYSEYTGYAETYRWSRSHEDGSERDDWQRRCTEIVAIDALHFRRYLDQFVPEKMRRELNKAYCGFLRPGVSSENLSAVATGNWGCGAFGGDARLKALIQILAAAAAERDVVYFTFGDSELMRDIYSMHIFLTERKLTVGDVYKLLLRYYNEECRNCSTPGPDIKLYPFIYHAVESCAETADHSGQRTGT

How did the IC50 turn out when `CN1C(=O)c2cc(S(=O)(=O)NC3(C)CC3)ccc2N2C1=NCC2C1CC1` (stereo not shown) [Example 48, 1-cyclopropyl-4-methyl-N-(1-methylcyclopropyl)-5-oxo-1,2,4,5-tetrahydroimidazo[1,2-a]quinazoline-7-sulfonamide] was run?
Its IC50 is 100 to 1000 nM.

Which IC50 does the source give for `CC(C)C1CN=C2N(C)C(=O)c3cc(S(=O)(=O)NC4(C)CC4)ccc3N21` (stereo not shown) [Example 49, 1-isopropyl-4-methyl-N-(1-methylcyclopropyl)-5-oxo-1,2,4,5-tetrahydroimidazo[1,2-a]quinazoline-7-sulfonamide] here?
The IC50 was 1000 to 10000 nM.

Which IC50 does the source give for `CCC1CN=C2N(C)C(=O)c3cc(S(=O)(=O)NC4(C)CC4)ccc3N21` (stereo not shown) [Example 50, 1-ethyl-4-methyl-N-(1-methylcyclopropyl)-5-oxo-1,2,4,5-tetrahydroimidazo[1,2-a]quinazoline-7-sulfonamide] here?
Its IC50 is 100 to 1000 nM.

`C[C@@H]1CN=C2N(Cc3ccccc3)C(=O)c3cc(S(=O)(=O)NC4(C)CC4)ccc3N21` [Example 51, (R)-4-benzyl-1-methyl-N-(1-methylcyclopropyl)-5-oxo-1,2,4,5-tetrahydroimidazo[1,2-a]quinazoline-7-sulfonamide] was tested. Which IC50 did it give?
Its IC50 is 1000 to 10000 nM.

`C[C@@H]1CN=C2N(C)C(=O)c3cc(S(=O)(=O)NC4(C)CC4)ccc3N21` [Example 52, (R)-1,4-dimethyl-N-(1-methylcyclopropyl)-5-oxo-1,2,4,5-tetrahydroimidazo[1,2-a]quinazoline-7-sulfonamide] was tested. Which IC50 did it give?
Its IC50 is 100 to 1000 nM.

`C[C@@H]1CN=C2N(Cc3cnn(CCN(C)C)c3)C(=O)c3cc(S(=O)(=O)NC4(C)CC4)ccc3N21` [Example 53, (R)-4-((1-(2-(dimethylamino)ethyl)-1H-pyrazol-4-yl)methyl)-1-methyl-N-(1-methylcyclopropyl)-5-oxo-1,2,4,5-tetrahydroimidazo[1,2-a]quinazoline-7-sulfonamide] was tested. Which IC50 did it give?
The IC50 was 100 to 1000 nM.

Which IC50 does the source give for `C[C@@H]1CN=C2N(CC3COC3)C(=O)c3cc(S(=O)(=O)NC4(C)CC4)ccc3N21` [Example 54, (R)-1-methyl-N-(1-methylcyclopropyl)-4-(oxetan-3-ylmethyl)-5-oxo-1,2,4,5-tetrahydroimidazo[1,2-a]quinazoline-7-sulfonamide] here?
The IC50 was over 10000 nM.

For `C[C@@H]1CN=C2N(Cc3cn(C)nc3C(F)(F)F)C(=O)c3cc(S(=O)(=O)NC4(C)CC4)ccc3N21` [Example 55, (R)-1-methyl-4-((1-methyl-3-(trifluoromethyl)-1H-pyrazol-4-yl)methyl)-N-(1-methylcyclopropyl)-5-oxo-1,2,4,5-tetrahydroimidazo[1,2-a]quinazoline-7-sulfonamide], which IC50 is on record?
Its IC50 is at most 100 nM.

How did the IC50 turn out when `Cc1nnc(CN2C(=O)c3cc(S(=O)(=O)NC4(C)CC4)ccc3N3C2=NC[C@H]3C)s1` [Example 56, (R)-1-methyl-4-((5-methyl-1,3,4-thiadiazol-2-yl)methyl)-N-(1-methylcyclopropyl)-5-oxo-1,2,4,5-tetrahydroimidazo[1,2-a]quinazoline-7-sulfonamide] was run?
The IC50 was at most 100 nM.

Which IC50 does the source give for `C[C@@H]1CN=C2N(Cc3cnn(C(F)F)c3)C(=O)c3cc(S(=O)(=O)NC4(C)CC4)ccc3N21` [Example 57, (R)-4-((1-(difluoromethyl)-1H-pyrazol-4-yl)methyl)-1-methyl-N-(1-methylcydopropyl)-5-oxo-1,2,4,5-tetrahydroimidazo[1,2-a]quinazoline-7-sulfonamide] here?
Its IC50 is at most 100 nM.

Which IC50 does the source give for `C#CCN1C(=O)c2cc(S(=O)(=O)NC3(C)CC3)ccc2N2C1=NC[C@H]2C` [Example 58, (R)-1-methyl-N-(1-methylcyclopropyl)-5-oxo-4-(prop-2-yn-1-yl)-1,2,4,5-tetrahydroimidazo[1,2-a]quinazoline-7-sulfonamide] here?
Its IC50 is at most 100 nM.

How did the IC50 turn out when `CC#C[C@@H]1CN=C2N(Cc3cnn(C)c3)C(=O)c3cc(S(=O)(=O)NC4(C)CC4)ccc3N21` [Example 59, (R)-4-((1-methyl-1H-pyrazol-4-yl)methyl)-N-(1-methylcyclopropyl)-5-oxo-1-(prop-1-yn-1-yl)-1,2,4,5-tetrahydroimidazo[1,2-a]quinazoline-7-sulfonamide] was run?
The IC50 was at most 100 nM.

`CC#C[C@H]1CN=C2N(Cc3cnn(C)c3)C(=O)c3cc(S(=O)(=O)NC4(C)CC4)ccc3N21` [Example 60, (S)-4-((1-methyl-1H-pyrazol-4-yl)methyl)-N-(1-methylcyclopropyl)-5-oxo-1-(prop-1-yn-1-yl)-1,2,4,5-tetrahydroimidazo[1,2-a]quinazoline-7-sulfonamide] was tested. Which IC50 did it give?
Its IC50 is 100 to 1000 nM.

With `[2H]C([2H])(c1cnn(C)c1)N1C(=O)c2cc(S(=O)(=O)NC3(C)CC3)ccc2N2C1=NC[C@H]2C` [Example 61, (R)-1-methyl-4-((1-methyl-1H-pyrazol-4-yl)methyl-d2)-N-(1-methylcyclopropyl)-5-oxo-1,2,4,5-tetrahydroimidazo[1,2-a]quinazoline-7-sulfonamide] as the molecule, how does the IC50 read?
Its IC50 is at most 100 nM.

For `[2H]C([2H])(c1c(C)noc1C)N1C(=O)c2cc(S(=O)(=O)NC3(C)CC3)ccc2N2C1=NC[C@H]2C` [Example 62, (R)-4-((3,5-dimethylisoxazol-4-yl)methyl-d2)-1-methyl-N-(1-methylcyclopropyl)-5-oxo-1,2,4,5-tetrahydroimidazo[1,2-a]quinazoline-7-sulfonamide], which IC50 is on record?
Its IC50 is at most 100 nM.

Which IC50 does the source give for `[2H]C([2H])(c1cnc(C)s1)N1C(=O)c2cc(S(=O)(=O)NC3(C)CC3)ccc2N2C1=NC[C@H]2C` [Example 63, (R)-1-methyl-N-(1-methylcyclopropyl)-4-((2-methylthiazol-5-yl)methyl-d2)-5-oxo-1,2,4,5-tetrahydroimidazo[1,2-a]quinazoline-7-sulfonamide] here?
The IC50 was at most 100 nM.

For `Cn1cc(CN2C(=O)c3cc(S(=O)(=O)NC4(C)CC4)ccc3N3CC(C)(C)N=C23)cn1` [Example 64, 2,2-dimethyl-4-((1-methyl-1H-pyrazol-4-yl)methyl)-N-(1-methylcyclopropyl)-5-oxo-1,2,4,5-tetrahydroimidazo[1,2-a]quinazoline-7-sulfonamide], which IC50 is on record?
The IC50 was at most 100 nM.

`Cn1cc(CN2C(=O)c3cc(S(=O)(=O)NC4(C)CC4)ccc3N3C2=NC[C@H]3C(F)(F)F)cn1` [Example 65, (S)-1-trifluoromethyl-4-((1-methyl-1H-pyrazol-4-yl)methyl)-N-(1-methylcyclopropyl)-5-oxo-1,2,4,5-tetrahydroimidazo[1,2-a]quinazoline-7-sulfonamide] was tested. Which IC50 did it give?
The IC50 was at most 100 nM.

`C[C@@H]1CN=C2N(Cc3cnn(CC#N)c3)C(=O)c3cc(S(=O)(=O)NC4(C)CC4)ccc3N21` [Example 66, (R)-1-methyl-4-((1-cyanomethyl-1H-pyrazol-4-yl)methyl)-N-(1-methylcyclopropyl)-5-oxo-1,2,4,5-tetrahydroimidazo[1,2-a]quinazoline-7-sulfonamide] was tested. Which IC50 did it give?
The IC50 was at most 100 nM.

With `Cc1noc(C)c1CN1C(=O)c2cc(S(=O)(=O)NC3(C)CC3)ccc2N2C1=NC[C@H]2C(C)C` [Example 67, (R)-4-((3,5-dimethylisoxazol-4-yl)methyl)-1-isopropyl-N-(1-methylcyclopropyl)-5-oxo-1,2,4,5-tetrahydroimidazo[1,2-a]quinazoline-7-sulfonamide] as the molecule, how does the IC50 read?
The IC50 was at most 100 nM.

How did the IC50 turn out when `Cc1noc(C)c1CN1C(=O)c2cc(S(=O)(=O)NC3(C)CC3)ccc2N2C1=NC[C@@H]2C(C)C` [Example 68, (S)-4-((3,5-dimethylisoxazol-4-yl)methyl)-1-isopropyl-N-(1-methylcyclopropyl)-5-oxo-1,2,4,5-tetrahydroimidazo[1,2-a]quinazoline-7-sulfonamide] was run?
The IC50 was 1000 to 10000 nM.

Which IC50 does the source give for `Cc1noc(C)c1CN1C(=O)c2cc(S(=O)(=O)NC3(C)CC3)ccc2N2C1=NC[C@H]2C1CC1` [Example 69, (R)-1-cyclopropyl-4-((3,5-dimethylisoxazol-4-yl)methyl)-N-(1-methylcyclopropyl)-5-oxo-1,2,4,5-tetrahydroimidazo[1,2-a]quinazoline-7-sulfonamide] here?
Its IC50 is at most 100 nM.

`Cc1noc(C)c1CN1C(=O)c2cc(S(=O)(=O)NC3(C)CC3)ccc2N2C1=NC[C@@H]2C1CC1` [Example 70, (S)-1-cyclopropyl-4-((3,5-dimethylisoxazol-4-yl)methyl)-N-(1-methylcyclopropyl)-5-oxo-1,2,4,5-tetrahydroimidazo[1,2-a]quinazoline-7-sulfonamide] was tested. Which IC50 did it give?
Its IC50 is 100 to 1000 nM.

With `C#C[C@@H]1CN=C2N(Cc3c(C)noc3C)C(=O)c3cc(S(=O)(=O)NC4(C)CC4)ccc3N21` [Example 71, (R)-4-((3,5-dimethylisoxazol-4-yl)methyl)-1-ethynyl-N-(1-methylcyclopropyl)-5-oxo-1,2,4,5-tetrahydroimidazo[1,2-a]quinazoline-7-sulfonamide] as the molecule, how does the IC50 read?
Its IC50 is at most 100 nM.

With `C#C[C@H]1CN=C2N(Cc3c(C)noc3C)C(=O)c3cc(S(=O)(=O)NC4(C)CC4)ccc3N21` [Example 72, (S)-4-((3,5-dimethylisoxazol-4-yl)methyl)-1-ethynyl-N-(1-methylcyclopropyl)-5-oxo-1,2,4,5-tetrahydroimidazo[1,2-a]quinazoline-7-sulfonamide] as the molecule, how does the IC50 read?
Its IC50 is at most 100 nM.
